This is an account of results in EP1146895B1, “THROMBOPOIETIN COMPOSITIONS FOR INCREASING CIRCULATING PLATELETS” (BOARD OF REGENTS, THE UNIVERSITY OF TEXAS SYSTEM, priority 1999, dated 2000).

The test system of data set [1] is gynecologic malignancy. As to the kind of experiment: Phase I/II carboplatin study: tumor response. It is filed as in vivo, humans. Conditions: carboplatin AUC 11 with or without rhTPO, 25 evaluable patients. The procedure: (§1) Before and during the course of the clinical trial, patients were monitored with complete history, physical examinations, and laboratory tests including complete blood cell counts, serum chemistry, urinalysis, chest X-ray, and electrocardiograph. Blood counts were performed three times a week until the expected nadir period was reached and then daily until the counts had recovered. Serum samples were examined for antibodies reactive to full length TPO three times prior to study and weekly while on study. Positive sera (optical density ratio ≥1.5) were further analyzed by anti-truncated TPO antibody assay, C-mpl blocking assay, and cell-proliferation biologic assay. Patients positive in all assays were considered to be at risk for antibody-induced thrombocytopenia. Bone marrow (BM) aspiration and biopsy were done in all patients before, and one week after rhTPO treatment, and in selected patients at a later time point (day 10 or 14) in the prechemotherapy cycle. Tumor response was evaluated by physical examination, tumor marker (CA-125) evaluation, and imaging studies performed at periodic intervals.

The subject of data set [2] is carboplatin-induced thrombocytopenia. The data set can be described thus: Phase I/II study of subcutaneous rhTPO prior to and following carboplatin in gynecologic malignancy: hematologic effects. Particulars: for Number (%) of Patients Requiring Platelet Transfusions: Cycle-1 (Carboplatin) or Cycle-2 (Carboplatin+ rhTPO).
From the text: Carboplatin is effective in advanced-stage platin-sensitive recurrent disease; however, cumulative thrombocytopenia is frequently dose-limiting. […] During dose-escalation phase, rhTPO was given by S.C. injection as a single dose (0.6, 1.2, 2.4, 3.6 mcg/kg) prior to carboplatin and for four doses following a second cycle of carboplatin. […]
The inventor performed a phase I/II study of rhTPO prior to and following carboplatin in 29 patients with advanced gynecologic malignancy. During the dose-escalation phase, rhTPO was administered by subcutaneous injection as a single dose (0.6, 1.2, 2.4, and 3.6 mcg/kg) prior to carboplatin, and for four doses following a second cycle of carboplatin. During dose-expansion phase (n=12). rhTPO was used at the optimal biologic dose only as a secondary prophylaxis for severe thrombocytopenia.
The study included two components, a dose-escalation (safety) component and dose-expansion (activity) component using the optimal dose. During the dose-escalation part of this trial, rhTPO was administered as a single dose by subcutaneous injection 3 weeks before chemotherapy in order to evaluate clinical tolerance and the hematopoietic effects of rhTPO alone. […] Thus Cycle- 1 (chemotherapy alone) served as an internal control for each patient for Cycle-2 (chemotherapy with rhTPO).
At least three patients were entered at each dose level of rhTPO (0.6, 1.2, 2.4, and 3.6 mcg/m^2/d). […] In the subsequent cycles, rhTPO was used at OBD as a secondary prophylaxis by same schedule [days 2, 4, 6, 8 (n=6)] or by a modified schedule [days -1, 1, 3, 5 (n=6)]. The latter schedule was used to assess whether earlier administration of TPO can further augment the degree of protection.
Patients received platelet transfusions for severe thrombocytopenia (i.e. platelet count <20,000/mm^3), RBC transfusions for anemia (i.e. hemoglobin [Hb]<8 gm/dL), and antibiotics for neutropenic fever (i.e. temperature ≥38.3°C and absolute neutrophil count <500/mm^3) or when clinically indicated. The use of G-CSF was not allowed during the first two cycles of chemotherapy, but was allowed in the later cycles (3 - 6) only if clinically indicated (i.e. as a secondary prophylaxis in those patients who experienced prolonged neutropenia or delayed neutrophil recovery).
as §1
Hematopoietic toxicity from Cycle-1 1 of chemotherapy (no rhTPO) was compared with the results from Cycle-2 (with rhTPO) by means of a paired T test for continuously measured variables.

For data set [3], the system named is recurrent ovarian cancer. Particulars: 800 mg/m^2 without cytokine support, 30 patients (Ozols et al., 1987); cited from earlier work.
Data set [4] can be described thus: Phase I/II carboplatin study: clinical tolerance, adverse events, anti-TPO antibodies. It is filed as in vivo, humans.
In data set [5] the test system is platelets. The data set can be described thus: Reversible block of in vitro ADP- and collagen-induced aggregation by second messenger effectors. The format is cell-based. Conditions: agonist (ADP, collagen)-induced. An excerpt:
The reversible inhibition induced by this formulation effectively reduces the development of the platelet storage lesion when platelets are cryopreserved. The following is a brief description of the second messenger pathways manipulated in order to control activation of platelets during storage, and the specific inhibitors used to abrogate the initiation of the respective pathways.

The mark [6] stands for this setting: 22 patients, C-1 (C) or C-2 (C+T), mean ± SEM.
Setting [7] is: Cycle-1 Carboplatin alone or Cycle-2 Carboplatin + rhTPO, n=27.

Take `N.N.O=C([O-])C1(C(=O)[O-])CCC1.[Pt+2]` [Carboplatin]: the major tumor response in data set [1] is on record as 50%. Also, the “Nadir PLT” value in data set [2] (22 patients, all rhTPO doses, C-1 carboplatin alone (C), C-2 carboplatin + rhTPO (C+T), mean ± SEM) is 20 ±5 x10^3/mm^3. Besides, the “No. (%) of PTS transfused” value in data set [2] (22 patients, C-1 (C) or C-2 (C+T)) was 11 (50). For the same compound, in data set [2] (setting [6]), the “Days PLT <50 × 10^3/mm^3” value came out at 6.3 ±1.0 days and the “Days PLT <100 × 10^3/mm^3” value worked out at 10.3 ± 1.3 days. Further, in data set [2] (All Patients (0.6 - 3.6 mcg/kg) n=27), the “Number (%) of Patients Requiring Platelet Transfusions” value was 16 (59%). In addition, the “Number (%) of Patients Requiring Platelet Transfusions” value in data set [2] (Optimal Biologic Dose (1.2 mcg/kg) n=16) is reported as 12(75%). In data set [2] (cycle-1 without rhTPO, secondary prophylaxis patients), the “incidence of thrombocytopenia requiring platelet transfusions” value is 10 of 12. Also, the Major responses in data set [3] is listed as 27%. Besides, the “Fever, number of patients” value in data set [4] (Cycle-1 Carboplatin alone n=27 or Cycle-2 Carboplatin + rhTPO n=27) was determined as 12. Besides, in data set [4] (setting [7]), the “Anorexia, number of patients” value was 14; the “Anorexia, number of patients experiencing grade ≥3 toxicity” value is 1; the “Bone pain, number of patients” value is reported as 7; the “Chills, number of patients” value is reported as 8. Besides, in data set [4] (setting [7]), the “Constipation, number of patients” value is recorded as 11; the “Constipation, number of patients experiencing grade ≥3 toxicity” value worked out at 2; the “Diarrhea, number of patients” value is recorded as 8; the “Diarrhea, number of patients experiencing grade ≥3 toxicity” value turned out to be 1. For the same compound, in data set [4] (setting [7]), the “Fatigue, number of patients” value was found to be 12; the “Fatigue, number of patients experiencing grade ≥3 toxicity” value is reported as 10; the “Headache, number of patients” value is reported as 11; the “Headache, number of patients experiencing grade ≥3 toxicity” value came to 4. Moreover, in data set [4] (setting [7]), the “Mucositis, number of patients” value is given as 4; the “Myalgia, number of patients” value was found to be 10; the “Nausea, number of patients” value turned out to be 18; the “Nausea, number of patients experiencing grade ≥3 toxicity” value was 3. In addition, in data set [4] (setting [7]), the “Vomiting, number of patients” value amounted to 12. Moreover, the “Vomiting, number of patients experiencing grade ≥3 toxicity” value in data set [4] (Cycle-1 Carboplatin alone, n=27) was determined as 1.
Take `Nc1ncnc2c1ncn2[C@@H]1O[C@H](CO)[C@@H](O)[C@H]1O` [Adenosine]: in data set [5], the “effect on in vitro aggregation of platelets” value is on record as “reversibly inhibits”.
Same read-out and setting: the value for `N=C(N)NC(=O)c1nc(Cl)c(N)nc1N` [Amiloride] was “effectively and reversibly blocks”.
